Measurements published in US9050344B2, “Therapeutic compounds” (Gilead Sciences, Inc., priority 2013, dated 2015).

Columns and labels:
[1] = Test B: Cytotoxicity Assay (protocol of Test A, uninfected cells); format: cell-based; settings: human, uninfected MT-4 cells, CellTiter-Glo
Experimental: Test B: Cytotoxicity Assay Compound cytotoxicity and the corresponding CC50 values was determined using the same protocol as described in the antiviral assay (Test A) except that uninfected cells were used.

HIV-IIIb = assay: Test A: Antiviral Assay in MT4 Cells; format: cell-based, HIV-1; settings: Human immunodeficiency virus 1, IIIB, MT4, 120 h, read-out: % inhibition at 3 μM
Experimental: Test A: Antiviral Assay in MT4 Cells
For the antiviral assay, 40 μL of 1× test concentration of 3-fold serially diluted compound in culture medium with 10% FBS was added to each well of a 384-well plate (10 concentrations) in quadruplicate. MT-4 cells were next mixed with HIV-IIIb at an m.o.i of 0.003 for 1 hour, after which time 35 μL of virus/cell mixture (2000 cells) was immediately added to each well containing 40 μL of diluted compound. The plates were then incubated at 37° C. for 5 days. After 5 days of incubation, 25 μl of 2× concentrated CellTiter-Glo™ Reagent (catalog #G7571, Promega Biosciences, Inc., Madison, Wis.) was added to each well containing MT-4 cells. Cell lysis was carried out by incubating at room temperature for 10 min and then chemiluminescence was read.

**Q.** With `Cc1nc([C@H](Cc2cc(F)cc(F)c2)NC(=O)Cn2nc(C(F)(F)F)c3c2C(F)(F)[C@@H]2C[C@H]32)c(-c2cccc3c(NS(C)(=O)=O)nn(C)c23)cc1N` [Compound 45, N—((S)-1-(5-amino-6-methyl-3-(1-methyl-3-(methylsulfonamido)-1H-indazol-7-yl)pyridin-2-yl)-2-(3,5-difluorophenyl)ethyl)-2-((3bS,4aR)-5,5-difluoro-3-(trifluoromethyl)-3b,4,4a,5-tetrahydro-1H-cyclopropa[3,4]cyclopenta[1,2-c]pyrazol-1-yl)acetamide] as the compound, how does the CC50 at 5 days [1] read?
**A.** 21.5 µM

**Q.** What about the inhibition at 3 µM (HIV-IIIb) of the same compound?
**A.** 110%

**Q.** Which results are given for `Cn1nc(NS(C)(=O)=O)c2c(Cl)ccc(-c3cc(N)c(Cl)nc3[C@H](Cc3cc(F)cc(F)c3)NC(=O)Cn3nc(C(F)(F)F)c4c3C(F)(F)[C@@H]3C[C@H]43)c21` [Compound 54, N—((S)-1-(5-amino-6-chloro-3-(4-chloro-1-methyl-3-(methylsulfonamido)-1H-indazol-7-yl)pyridin-2-yl)-2-(3,5-difluorophenyl)ethyl)-2-((3bS,4aR)-5,5-difluoro-3-(trifluoromethyl)-3b,4,4a,5-tetrahydro-1H-cyclopropa[3,4]cyclopenta[1,2-c]pyrazol-1-yl)acetamide]?
**A.** CC50 at 5 days [1]: 12.1 µM; inhibition at 3 µM (HIV-IIIb): 92%

**Q.** Which results are given for `CN(CCO)c1ccc(-c2ccc(Cl)c3c(NS(C)(=O)=O)nn(C)c23)c([C@H](Cc2cc(F)cc(F)c2)NC(=O)Cn2nc(C(F)F)c3c2C(F)(F)[C@@H]2C[C@H]32)n1` [Compound 57G, N—((S)-1-(3-(4-chloro-1-methyl-3-(methylsulfonamido)-1H-indazol-7-yl)-6-((2-hydroxyethyl)(methyl)amino)pyridin-2-yl)-2-(3,5-difluorophenyl)ethyl)-2-((3bS,4aR)-3-(difluoromethyl)-5,5-difluoro-3b,4,4a,5-tetrahydro-1H-cyclopropa[3,4]cyclopenta[1,2-c]pyrazol-1-yl)acetamide]?
**A.** CC50 at 5 days [1]: 29.5 µM; inhibition at 3 µM (HIV-IIIb): 81%

**Q.** With `Cc1c(-c2cc(NS(C)(=O)=O)cnc2[C@H](Cc2cc(F)cc(F)c2)NC(=O)Cn2nc(C(F)(F)F)c3c2C(F)(F)[C@@H]2C[C@H]32)ccc2n[nH]c(=O)n12` [Compound 41E, 2-((3bS,4aR)-5,5-difluoro-3-(trifluoromethyl)-3b,4,4a,5-tetrahydro-1H-cyclopropa[3,4]cyclopenta[1,2-c]pyrazol-1-yl)-N—((S)-2-(3,5-difluorophenyl)-1-(3-(5-methyl-3-oxo-2,3-dihydro-[1,2,4]triazolo[4,3-a]pyridin-6-yl)-5-(methylsulfonamido)pyridin-2-yl)ethyl)acetamide] as the compound, how does the CC50 at 5 days [1] read?
**A.** > 50 µM

**Q.** What about the inhibition at 3 µM (HIV-IIIb) of the same compound?
**A.** 91%

**Q.** For `CN1CCN(c2ccc(-c3ccc(Cl)c4c(NS(C)(=O)=O)nn(C)c34)c([C@H](Cc3cc(F)cc(F)c3)NC(=O)Cn3nc(C(F)(F)F)c4c3C(F)(F)[C@@H]3C[C@H]43)n2)CC1` [Compound 60C, N—((S)-1-(3-(4-chloro-1-methyl-3-(methylsulfonamido)-1H-indazol-7-yl)-6-(4-methylpiperazin-1-yl)pyridin-2-yl)-2-(3,5-difluorophenyl)ethyl)-2-((3bS,4aR)-5,5-difluoro-3-(trifluoromethyl)-3b,4,4a,5-tetrahydro-1H-cyclopropa[3,4]cyclopenta[1,2-c]pyrazol-1-yl)acetamide], which CC50 at 5 days [1] is on record?
**A.** 9.11 µM

**Q.** And the inhibition at 3 µM (HIV-IIIb)?
**A.** 90%

**Q.** With `CN(C)c1cnc([C@H](Cc2cc(F)cc(F)c2)NC(=O)Cn2nc(C(F)F)c3c2C(F)(F)[C@@H]2C[C@H]32)c(-c2ccc(Cl)c3c(NS(C)(=O)=O)nn(C)c23)c1` [Compound 50, N—((S)-1-(3-(4-chloro-1-methyl-3-(methylsulfonamido)-1H-indazol-7-yl)-5-(dimethylamino)pyridin-2-yl)-2-(3,5-difluorophenyl)ethyl)-2-((3bS,4aR)-3-(difluoromethyl)-5,5-difluoro-3b,4,4a,5-tetrahydro-1H-cyclopropa[3,4]cyclopenta[1,2-c]pyrazol-1-yl)acetamide] as the compound, how does the CC50 at 5 days [1] read?
**A.** 34.2 µM

**Q.** What about the inhibition at 3 µM (HIV-IIIb) of the same compound?
**A.** 86%

**Q.** Which CC50 at 5 days [1] does the source give for `Cc1c(-c2cc(N)cnc2[C@H](Cc2cc(F)cc(F)c2)NC(=O)Cn2nc(C(F)(F)F)c3c2C(F)(F)[C@@H]2C[C@H]32)ccc2n[nH]c(=O)n12` [Compound 34, N—((S)-1-(5-amino-3-(5-methyl-3-oxo-2,3-dihydro-[1,2,4]triazolo[4,3-a]pyridin-6-yl)pyridin-2-yl)-2-(3,5-difluorophenyl)ethyl)-2-((3bS,4aR)-5,5-difluoro-3-(trifluoromethyl)-3b,4,4a,5-tetrahydro-1H-cyclopropa[3,4]cyclopenta[1,2-c]pyrazol-1-yl)acetamide] here?
**A.** 22.4 µM

**Q.** What about the inhibition at 3 µM (HIV-IIIb) of the same compound?
**A.** 89%

**Q.** With `Cn1nc(NS(C)(=O)=O)c2cccc(-c3cc(N)cnc3[C@H](Cc3cc(F)cc(F)c3)NC(=O)Cn3nc(C(F)(F)F)c4c3C(F)(F)[C@@H]3C[C@H]43)c21` [Compound 35, N—((S)-1-(5-amino-3-(1-methyl-3-(methylsulfonamido)-1H-indazol-7-yl)pyridin-2-yl)-2-(3,5-difluorophenyl)ethyl)-2-((3bS,4aR)-5,5-difluoro-3-(trifluoromethyl)-3b,4,4a,5-tetrahydro-1H-cyclopropa[3,4]cyclopenta[1,2-c]pyrazol-1-yl)acetamide] as the compound, how does the CC50 at 5 days [1] read?
**A.** 23.9 µM

**Q.** What about the inhibition at 3 µM (HIV-IIIb) of the same compound?
**A.** 93%

**Q.** With `Cn1nc(NS(C)(=O)=O)c2cccc(-c3cnc(N4CC(C)(O)C4)nc3[C@H](Cc3cc(F)cc(F)c3)NC(=O)Cn3nc(C(F)(F)F)c4c3C(F)(F)[C@@H]3C[C@H]43)c21` [Compound 36C, 2-((3bS,4aR)-5,5-difluoro-3-(trifluoromethyl)-3b,4,4a,5-tetrahydro-1H-cyclopropa[3,4]cyclopenta[1,2-c]pyrazol-1-yl)-N—((S)-2-(3,5-difluorophenyl)-1-(2-(3-hydroxy-3-methylazetidin-1-yl)-5-(1-methyl-3-(methylsulfonamido)-1H-indazol-7-yl)pyrimidin-4-yl)ethyl)acetamide] as the compound, how does the CC50 at 5 days [1] read?
**A.** 32.2 µM

**Q.** And the inhibition at 3 µM (HIV-IIIb)?
**A.** 94%

**Q.** What does the source list for `NC(=O)c1cc(-c2cc(N)cnc2[C@H](Cc2cc(F)cc(F)c2)NC(=O)Cn2nc(C(F)F)c3c2C(F)(F)CCC3(F)F)ccc1F` [Compound 33, (S)-5-(5-amino-2-(1-(2-(3-(difluoromethyl)-4,4,7,7-tetrafluoro-4,5,6,7-tetrahydro-1H-indazol-1-yl)acetamido)-2-(3,5-difluorophenyl)ethyl)pyridin-3-yl)-2-fluorobenzamide]?
**A.** CC50 at 5 days [1]: 13.3 µM; inhibition at 3 µM (HIV-IIIb): 85%

**Q.** Which CC50 at 5 days [1] does the source give for `CN(CCO)c1ccc(-c2ccc(Cl)c3c(NS(C)(=O)=O)nn(C)c23)c([C@H](Cc2cc(F)cc(F)c2)NC(=O)Cn2nc(C(F)(F)F)c3c2C(F)(F)[C@@H]2C[C@H]32)n1` [Compound 58, N—((S)-1-(3-(4-chloro-1-methyl-3-(methylsulfonamido)-1H-indazol-7-yl)-6-((2-hydroxyethyl)(methyl)amino)pyridin-2-yl)-2-(3,5-difluorophenyl)ethyl)-2-((3bS,4aR)-5,5-difluoro-3-(trifluoromethyl)-3b,4,4a,5-tetrahydro-1H-cyclopropa[3,4]cyclopenta[1,2-c]pyrazol-1-yl)acetamide] here?
**A.** 12.8 µM

**Q.** And the inhibition at 3 µM (HIV-IIIb)?
**A.** 86%

**Q.** Which CC50 at 5 days [1] does the source give for `Cn1nc(NS(C)(=O)=O)c2c(Cl)ccc(-c3ccc(NCCO)nc3[C@H](Cc3cc(F)cc(F)c3)NC(=O)Cn3nc(C(F)(F)F)c4c3C(F)(F)[C@@H]3C[C@H]43)c21` [Compound 56] here?
**A.** 24.3 µM

**Q.** And the inhibition at 3 µM (HIV-IIIb)?
**A.** 95%

**Q.** For `Cn1nc(NS(C)(=O)=O)c2c(Cl)ccc(-c3cc(N)cnc3[C@H](Cc3cc(F)cc(F)c3)NC(=O)Cn3nc(C(F)F)c4c3C(F)(F)[C@@H]3C[C@H]43)c21` [Compound 49C, N—((S)-1-(5-amino-3-(4-chloro-1-methyl-3-(methylsulfonamido)-1H-indazol-7-yl)pyridin-2-yl)-2-(3,5-difluorophenyl)ethyl)-2-((3bS,4aR)-3-(difluoromethyl)-5,5-difluoro-3b,4,4a,5-tetrahydro-1H-cyclopropa[3,4]cyclopenta[1,2-c]pyrazol-1-yl)acetamide], which CC50 at 5 days [1] is on record?
**A.** 28.1 µM

**Q.** And the inhibition at 3 µM (HIV-IIIb)?
**A.** 93%

**Q.** For `CNc1cnc([C@H](Cc2cc(F)cc(F)c2)NC(=O)Cn2nc(C(F)F)c3c2C(F)(F)[C@@H]2C[C@H]32)c(-c2ccc(Cl)c3c(NS(C)(=O)=O)nn(C)c23)c1` [Compound 51, N—((S)-1-(3-(4-chloro-1-methyl-3-(methylsulfonamido)-1H-indazol-7-yl)-5-(methylamino)pyridin-2-yl)-2-(3,5-difluorophenyl)ethyl)-2-((3bS,4aR)-3-(difluoromethyl)-5,5-difluoro-3b,4,4a,5-tetrahydro-1H-cyclopropa[3,4]cyclopenta[1,2-c]pyrazol-1-yl)acetamide], which CC50 at 5 days [1] is on record?
**A.** 16.6 µM

**Q.** What about the inhibition at 3 µM (HIV-IIIb) of the same compound?
**A.** 79%

**Q.** What does the source list for `Cn1nc(NS(C)(=O)=O)c2c(Cl)ccc(-c3cc(N)c(Cl)nc3[C@H](Cc3cc(F)cc(F)c3)NC(=O)Cn3nc(C(F)F)c4c3C(F)(F)[C@@H]3C[C@H]43)c21` [Compound 53B, N—((S)-1-(5-amino-6-chloro-3-(4-chloro-1-methyl-3-(methylsulfonamido)-1H-indazol-7-yl)pyridin-2-yl)-2-(3,5-difluorophenyl)ethyl)-2-((3bS,4aR)-3-(difluoromethyl)-5,5-difluoro-3b,4,4a,5-tetrahydro-1H-cyclopropa[3,4]cyclopenta[1,2-c]pyrazol-1-yl)acetamide]?
**A.** CC50 at 5 days [1]: 15 µM; inhibition at 3 µM (HIV-IIIb): 91%
